Measurements from patent publication US6048884A, “Amide derivatives and medicinal compositions thereof” (Yamanouchi Pharmaceutical Co., Ltd., priority 1997, dated 2000).
Counter-ions that a name gives are not always drawn.

What was measured:
[1] = system: kk mice (insulin-resisting model: obesity and hyperglycemia); test: Hypoglycemic test in kk mice (insulin sensitivity potentiating action); type: in vivo; conditions: oral administration of 10 mg/kg once daily for four days; blood sugar 15 to 18 hours after final administration vs level prior to administration; male kk mice, n=6; p<0.01
Protocol: 1. Hypoglycemic test in kk mice (insulin-resisting model: obesity and hyperglycemia) [insulin sensitivity potentiating action]:
Blood sugar levels under feeding were measured for male kk mice (sugar blood level being 200 mg/dl or more) and they were randomly divided into several groups. The drug to be tested was compulsorily administered per os once daily for four days and the blood sugar level after 15 to 18 hours from the final administration was compared with the level prior to the administration (n=6), whereupon a hypoglycemic rate (%) was calculated. Blood was collected from tail vein of the mouse using a glass capillary (previously treated with heparin), protein was removed therefrom and the amount of glucose (mg/dl) in the supernatant liquid was calorimetrically determined by a glucose oxidase method to obtain the blood sugar level.

[2] = system: normal rats (male rats of SD-strain); test: Sugar tolerance test in normal rats (OGTT; insulin secretion promoting action); type: in vivo; conditions: 10 mg/kg orally 30 minutes before glucose 2 g/kg per os; fasted male SD rats, n=4
Protocol: 2. Sugar tolerance test in normal rats [insulin secretion promoting action]:
Male rats of SD-strain (seven weeks age) were fasted for one night and day, randomly divided into several groups and subjected to an oral glucose tolerance test (OGTT) (n=4). The compound to be tested was orally administered at 30 minutes before administration of glucose (2 g/kg per os). Blood was collected by a heparin-treated glass syringe from abdominal artery of the rat under anesthetization with 65 mg/kg of pentbarbital, protein was removed therefrom and the amount of glucose (mg/dl) in the supernatant liquid was calorimetrically determined by a glucose oxidase method to obtain the blood sugar level. Insulin level in blood was determined by measuring the amount of insulin (ng/ml) in plasma by means of a radio-immunoassay (RIA). The result was that, when 10 mg/kg of the compound of Example 4 was administered, insulin secretion increased to an extent of three-fold in terms of AUC ratio and blood sugar level decreased to 90% as compared with that prior to the administration.

| SMILES | hypoglycemic rate [1] [%] | blood sugar level decreased to, as compared with that prior to the administration [2] [%] | insulin secretion increase in terms of AUC ratio (plasma insulin, RIA) [2] |
| --- | --- | --- | --- |
| O=C(Cc1csc(NCc2ccccc2)n1)Nc1ccc(CCNC[C@H](O)COc2ccccc2)cc1 [Example 1, (S)-2-(2-benzylamino-4-thiazolyl)-4'-[2-[(2-hydroxy-3-phenoxypropyl)amino]ethyl]acetanilide] | 47 |  |  |
| O=C(Cc1csc(Nc2cccc(F)c2)n1)Nc1ccc(CCNC[C@H](O)COc2ccccc2)cc1 [Example 2-b, (S)-2-[2-(3-fluoroanilino)-4-thiazol-4-yl)-4'-[2-[(2-hydroxy-3-phenoxypropyl)amino]ethyl]acetanilide] | 52 |  |  |
| CC(Cc1ccc(NC(=O)Cc2csc(Nc3ccccc3)n2)cc1)NC[C@H](O)COc1ccccc1 (stereo partly drawn) [Example 2-c, (S)-2-(2-anilino-4-thiazol-4-yl)-4'-{2-[(-2-hydroxy-3-phenoxypropyl)amino]propyl}acetanilide] | 50 |  |  |
| O=C(Cc1csc(Nc2ccccc2)n1)Nc1ccc(CCNC[C@H](O)COc2ccccc2)cc1 [Example 4, (S)-2-(2-phenylaminothiazol-4-yl)-4'-[2-[(2-hydroxy-3-phenoxyethyl)amino]ethyl]acetanilide dihydrochloride] | 56 | 90 | three-fold |
